Measurements: patent US4535089A, “Alkyloxazolylacetic acid derivative for the treatment of hyperlipidemia” (Tanabe Seiyaku Co., Ltd., priority 1982, dated 1985)

Key:
platelet aggregation [1] = assay: Platelet aggregation-inhibiting activity in vitro (collagen, platelet-rich plasma); type: cell-based, male SD rats; conditions: final concentration 100 μg/ml, rat PRP, 37° C.
Description: (§1) Blood was collected from the abdominal aorta of male SD rats (body weight: 250-300 g) which were anesthetized with ether. Nine volumes of said blood were mixed with one volume of an aqueous 3.8% (w/v) trisodium citrate solution, and the mixture was centrifuged at 500×g for 5 minutes to give platelet-rich plasma (hereinafter referred to as "PRP") as the supernatant solution. The bottom layer was further centrifuged at 1000×g for 10 minutes to give platelet-poor plasma (hereinafter referred to as "PPP") as the supernatant solution. PRP was diluted with PPP so that the blood platelet count was 8-10×10^5 cells/mm^3.Then, a mixture of 200 μl of said diluted PRP and 25 μl of a test compound solution (final concentration: 100 μg/ml) was introduced into a glass cell of SIENCO aggregometer (Sienco Inc., Morrison, Colo. Model DP-247-D). After the mixture was stirred at 1100 rpm at 37° C. for 2 minutes, 25 μl of a collagen solution (prepared by Holmsen's method described in Biochim. Biophys. Acta, Vol. 186, page 254(1969)) was added thereto, and the percentage inhibition of platelet aggregation was calculated in accordance with the following formula from the degree of the platelet aggregation which was estimated by Born's method (Nature, 194, page 927(1962)). [formula]

platelet aggregation [2] = assay: Platelet aggregation-inhibiting activity after oral administration (ex vivo); type: in vivo; conditions: Rattus norvegicus, 1 h, 100 mg/kg oral, blood collected one hour after administration, SD rats, read-out: Percentage inhibition of platelet aggregation (%)
Description: as §1, with “PRP was diluted with PPP so that the blood platelet count was 8-10×10^5 cells/mm^3.Then, a mixture of 200 μl of said diluted PRP and 25 μl of a test compound solution (final concentration: 100 μg/ml) was introduced into a glass cell of SIENCO aggregometer (Sienco Inc., Morrison, Colo. Model DP-247-D).” left out, “[formula]” left out
A test compound was suspended in a solution containing 0.25% of carboxymethylcellulose (sodium salt) and 0.01% of Tween 80, and the suspension was administered orally to make SD rats (a group of 4 rats). […] Thereafter, said blood was treated in the same manner as described in Experiment 2, and the percentage inhibition of platelet aggregation was calculated in accordance with the following formula: [formula]

serum cholesterol = assay: Hypolipidemic activity: decrease in serum cholesterol; type: in vivo; conditions: 50 mg % in diet, one week, male SD rats
Description: (§2) A test compound (50 mg %) was added to a commercial diet, and male SD rats (body weight: 120-140 g, a group of 5 rats) were fed with the diet ad libitum for one week. After the experimental period, blood was collected from the tail vein of the rats under ether anesthesia. Then, liver was excised from the rats and the weight thereof was measured. On the other hand, serum cholesterol and serum triglyceride were measured according to the methods of Zak (Amer. J. Clin. Pathol., Vol. 24, page 1307(1954)) and Van Handel-Zilversmit (J. Lab. & Clin. Med., Vol. 50, page 152(1957)), respectively. Based on the results obtained above, the decrease (%) in serum cholesterol or triglyceride and increase (%) in liver weight were calculated by the following formulae: [formula]

serum triglyceride = assay: Hypolipidemic activity: decrease in serum triglyceride; type: in vivo; conditions: 50 mg % in diet, one week, male SD rats
Description: as §2

liver = assay: Increase in liver weight (hypolipidemic experiment); type: in vivo; conditions: 50 mg % in diet, one week, male SD rats
Description: as §2

mice = assay: Acute oral toxicity in mice; type: in vivo; conditions: 1000 mg/kg oral, 7 days after administration
Description: The compound (I) (R^2 =H) of the present invention can be used for pharmaceutical use in the form of either a free acid or a pharmaceutically acceptable salt thereof. Pharmaceutically acceptable salts of the compound (I) (R^2 =H) include, for example, alkali metal salts such as sodium and potassium salts; alkaline earth metal salts such as calcium and magnesium salts; salts thereof with amino acids such as lysine, ornithine, arginine and histidine salts; and ammonium salt. Such pharmaceutically acceptable salts may be prepared, for example, by neutralizing the free acid with a stoichiometrically equimolar amount of a base such as an alkali metal hydroxide, an alkaline earth metal hydroxide, ammonia or a basic amino acid. The compound (I) and a salt thereof can be administered either orally or parenterally. For oral administration, the compound (I) or a salt thereof may be used in the form of tablets, powder, capsules, granules and the like. Known medicinal excipients such as calcium carbonate, calcium phosphate, corn starch, potato starch, sugar, lactose, talc, magnesium stearate and so forth may be used in making these pharmaceutical preparations. Alternatively, the compound (I) or a salt thereof may be used for oral administration in the form of aqueous or oily suspensions, solutions, syrps or elixirs. […]

Compound	inhibition at 100 µg/mL (platelet aggregation [1]) [%]	inhibition at 100 mg/kg (platelet aggregation [2]) [%]	Decrease (%) in serum cholesterol (serum cholesterol) [%]	Decrease (%) in serum triglyceride (serum triglyceride) [%]	increase (%) in liver weight (liver) [%]	mortality (mice)
CC(C)c1oc(-c2ccccc2)nc1CC(=O)O [2-(2-phenyl-5-isopropyl-4-oxazolyl)acetic acid]	≥ 10	97 ± 2	–	–	–	–
CC(C)c1oc(-c2ccc(Cl)cc2)nc1CC(=O)O [2-[2-(4-chlorophenyl)-5-isopropyl-4-oxazolyl]acetic acid]	≥ 10	–	12	39	–	–
Cc1oc(-c2ccc(Cl)cc2)nc1CC(=O)O [2-[2-(4-chlorophenyl)-5-methyl-4-oxazolyl]acetic acid]	–	–	14	48	–	–
CCCCCc1oc(-c2ccc(Cl)cc2)nc1CC(=O)O [2-[2-(4-chlorophenyl)-5-n-pentyl-4-oxazolyl]acetic acid]	–	–	19	60	–	–
CC(C)Cc1oc(-c2ccc(F)cc2)nc1CC(=O)O [2-[2-(4-fluorophenyl)-5-isobutyl-4-oxazolyl]acetic acid]	–	–	11	51	–	–
CC(C)c1oc(-c2ccc(F)cc2)nc1CC(=O)O [2-[2-(4-fluorophenyl)-5-isopropyl-4-oxazolyl]acetic acid]	≥ 10	–	21	42	–	–
CCOC(=O)C(C)(C)Oc1ccc(Cl)cc1 [Clofibrate, 2-(4-chlorophenoxy)-2-methylpropanoic acid ethyl ester, reference compound]	< 10	53 ± 19	15	16	12	–
CCOC(=O)Cc1nc(-c2ccc(Cl)cc2)oc1CC(C)C [ethyl 2-[2-(4-chlorophenyl)-5-isobutyl-4-oxazolyl]acetate]	≥ 10	–	–	–	–	–
CCOC(=O)Cc1nc(-c2ccc(Cl)cc2)oc1C(C)C [ethyl 2-[2-(4-chlorophenyl)-5-isopropyl-4-oxazolyl]acetate]	≥ 10	–	18	55	–	–
CCOC(=O)Cc1nc(-c2ccc(Cl)cc2)oc1C [ethyl 2-[2-(4-chlorophenyl)-5-methyl-4-oxazolyl]acetate]	–	–	19	36	–	no mouse dies
CCCCCc1oc(-c2ccc(Cl)cc2)nc1CC(=O)OCC [ethyl 2-[2-(4-chlorophenyl)-5-n-pentyl-4-oxazolyl]acetate]	–	–	15	52	–	no mouse dies
CCOC(=O)Cc1nc(-c2ccc(F)cc2)oc1CC(C)C [ethyl 2-[2-(4-fluorophenyl)-5-isobutyl-4-oxazolyl]acetate]	≥ 10	–	13	66	–	–
CCOC(=O)Cc1nc(-c2ccc(F)cc2)oc1C(C)C [ethyl 2-[2-(4-fluorophenyl)-5-isopropyl-4-oxazolyl]acetate]	≥ 10	–	23	33	–	–
